Values quoted from earlier work as cited in patent US20180008587A1, “THIOHYDANTOIN ANDROGEN RECEPTOR ANTAGONISTS FOR THE TREATMENT OF CANCER” (Jaressen Pharmaceutica NV, priority 2016, published 2018).

Target: T1, T877A AR mutant (Homo sapiens, UniProt P10275, T878A)
T1 sequence (P10275 1-920 T878A): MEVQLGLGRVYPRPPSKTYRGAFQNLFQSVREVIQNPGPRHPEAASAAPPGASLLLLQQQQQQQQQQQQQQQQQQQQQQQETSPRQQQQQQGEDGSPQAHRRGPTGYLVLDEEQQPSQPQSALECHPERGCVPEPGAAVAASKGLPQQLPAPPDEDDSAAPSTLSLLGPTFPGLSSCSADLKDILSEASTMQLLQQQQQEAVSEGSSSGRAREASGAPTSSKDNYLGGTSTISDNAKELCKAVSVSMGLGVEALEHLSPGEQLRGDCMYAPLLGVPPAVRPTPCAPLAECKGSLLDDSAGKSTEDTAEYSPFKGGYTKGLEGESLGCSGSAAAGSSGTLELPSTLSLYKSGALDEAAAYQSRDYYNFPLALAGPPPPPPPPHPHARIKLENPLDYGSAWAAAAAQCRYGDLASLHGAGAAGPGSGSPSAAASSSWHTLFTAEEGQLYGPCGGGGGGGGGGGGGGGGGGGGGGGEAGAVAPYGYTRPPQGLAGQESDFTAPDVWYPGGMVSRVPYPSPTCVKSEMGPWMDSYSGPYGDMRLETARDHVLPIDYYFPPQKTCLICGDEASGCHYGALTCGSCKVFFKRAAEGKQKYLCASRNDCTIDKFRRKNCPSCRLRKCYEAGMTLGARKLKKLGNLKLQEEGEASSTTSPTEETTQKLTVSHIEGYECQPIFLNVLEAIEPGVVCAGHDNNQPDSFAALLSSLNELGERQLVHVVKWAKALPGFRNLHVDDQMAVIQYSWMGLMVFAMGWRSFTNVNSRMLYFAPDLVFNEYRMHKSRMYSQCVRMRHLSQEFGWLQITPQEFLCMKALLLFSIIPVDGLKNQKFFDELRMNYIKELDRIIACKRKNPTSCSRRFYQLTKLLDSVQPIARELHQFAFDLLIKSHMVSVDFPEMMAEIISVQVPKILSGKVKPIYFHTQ
Conditions: cited from earlier work

CC(C)(O)C(=O)Nc1ccc([N+](=O)[O-])c(C(F)(F)F)c1 [hydroxyflutamide]
activity in T877A AR mutant: act as AR agonists
